Source: US7420001B2 (Wyeth, priority 2003, dated 2008)
Read-outs that look alike come from different tables or passages of the source.

What was measured:
MMP-13 = biological target: T1, MMP-13 (Homo sapiens, UniProt P45452); assay: In-vitro fluorescence assay of MMP-13 activity; format: biochemical
T1 construct: made in house

MMP-2 = biological target: T2, MMP-2 (Homo sapiens, UniProt P08253); assay: In-vitro fluorescence assay of MMP-2 activity; format: biochemical; conditions: recombinant human MMP-2; read-out: MMP-2 IC50
T2 construct: purchased Oncogene Research Products (Calbiochem) PF023
T2 sequence (P08253 110-660): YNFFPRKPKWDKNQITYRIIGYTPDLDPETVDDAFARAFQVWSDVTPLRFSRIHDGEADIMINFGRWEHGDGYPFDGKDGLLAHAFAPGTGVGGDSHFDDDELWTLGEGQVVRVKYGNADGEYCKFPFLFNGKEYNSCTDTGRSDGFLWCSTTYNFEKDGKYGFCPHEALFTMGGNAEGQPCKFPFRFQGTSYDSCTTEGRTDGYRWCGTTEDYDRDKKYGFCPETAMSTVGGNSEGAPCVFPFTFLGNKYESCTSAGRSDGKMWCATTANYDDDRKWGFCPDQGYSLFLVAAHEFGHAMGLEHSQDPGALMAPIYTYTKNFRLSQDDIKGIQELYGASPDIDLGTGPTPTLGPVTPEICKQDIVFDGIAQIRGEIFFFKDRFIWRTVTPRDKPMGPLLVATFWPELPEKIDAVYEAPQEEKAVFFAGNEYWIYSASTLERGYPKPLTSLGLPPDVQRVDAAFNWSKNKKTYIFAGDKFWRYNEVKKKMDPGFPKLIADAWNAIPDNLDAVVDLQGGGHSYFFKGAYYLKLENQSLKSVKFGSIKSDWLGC

MMP-14 = biological target: T3, MMP-14 (Homo sapiens, UniProt P50281); assay: In-vitro fluorescence assay of MMP-14 activity; format: biochemical
T3 construct: 20 kDa; purchased Chemicon International, Inc. CC 1041

MMP-1 = biological target: T4, MMP-1 (Homo sapiens, UniProt P03956)
T4 sequence (P03956 100-269 limits assumed): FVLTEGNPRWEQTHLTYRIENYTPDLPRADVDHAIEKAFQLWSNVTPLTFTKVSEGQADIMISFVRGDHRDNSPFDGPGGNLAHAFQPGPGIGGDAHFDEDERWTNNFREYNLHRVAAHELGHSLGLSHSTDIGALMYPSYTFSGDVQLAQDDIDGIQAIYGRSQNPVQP

[1] = recombinant human catalytic domain of MMP-13, read-out: MMP-13 IC50
[2] = recombinant human catalytic domain of MMP-14

| IC50 (MMP-13; [1]) | IC50 (MMP-2) | IC50 (MMP-14; [2]) | IC50 (MMP-1) | IC50 (MMP-13; MMP-13 IC50, recombinant human catalytic domain of MMP-13) | SMILES | IC50 (MMP-14) | IC50 (MMP-1; read-out: MMP-1 IC50, recombinant human catalytic domain of MMP-1) |
| --- | --- | --- | --- | --- | --- | --- | --- |
| 13 nM | 93 nM | 29 nM | 28300 nM | – | Cc1c(C(=O)Nc2ccc(-c3ccc(S(=O)(=O)N[C@@H](C(=O)O)C(C)C)cc3)cc2)oc2ccccc12 [Example 74, D-3-Methyl-2-{4′-[(3-methyl-benzofuran-2-carbonyl)-amino]-biphenyl-4-sulfonylamino}-butyric acid] | – | – |
| 5.7 nM | 6 nM | 7110 nM | 15000 nM | – | CC(C)[C@H](C(=O)O)N(C)S(=O)(=O)c1ccc(-c2ccc(NC(=O)c3cc4ccccc4o3)cc2)cc1 [Example 77, N-({4′-[(1-benzofuran-2-ylcarbonyl)amino]-1,1′-biphenyl-4-yl}sulfonyl)-N-methyl-D-valine] | – | – |
| 40 nM | 35 nM | 24000 nM | 500000 nM | – | CN(CC(=O)O)S(=O)(=O)c1ccc(-c2ccc(NC(=O)c3cc4ccccc4o3)cc2)cc1 [Example 79, N-({4′-[(1-Benzofuran-2-ylcarbonyl)amino]-1,1′-biphenyl-4-yl}sulfonyl)-N-methylglycine] | – | – |
| 18 nM | 30 nM | > 60000 nM | > 10000 nM | – | CC(C)[C@@H](C(=O)O)N(CCN1CCOCC1)S(=O)(=O)c1ccc(-c2ccc(NC(=O)c3cc4ccccc4o3)cc2)cc1 [Example 82, N-({4′-[(1-Benzofuran-2-ylcarbonyl)amino]-1,1′-biphenyl-4-yl}sulfonyl)-N-(2-morpholin-4-ylethyl)-L-valine] | – | – |
| – | 3650 nM | 7000 nM | 11000 nM | 15 nM | Cc1c(C(=O)Nc2ccc(-c3ccc(S(=O)(=O)N[C@H](C(=O)O)C(C)C)cc3)cc2)oc2cccc(-c3ccccc3)c12 [Example 109, (S)-3-Methyl-2-{4′-[(3-methyl-4-phenyl-benzofuran-2-carbonyl)-amino]-biphenyl-4-sulfonylamino}-butyric acid] | – | – |
| 17 nM | 2400 nM | 20000 nM | 49600 nM | – | Cc1c(C(=O)Nc2ccc(-c3ccc(S(=O)(=O)N[C@H](C(=O)O)C(C)C)cc3)cc2)oc2cccc(-c3cccc([N+](=O)[O-])c3)c12 [Example 110, (S)-3-Methyl-2-(4′-{[3-methyl-4-(3-nitro-phenyl)-benzofuran-2-carbonyl]-amino}-biphenyl-4-sulfonylamino)-butyric acid] | – | – |
| 0.5 nM | 0.7 nM | 2000 nM | 20000 nM | – | CC(C)[C@@H](NS(=O)(=O)c1ccc(-c2ccc(OC(=O)c3cc4ccccc4o3)cc2)cc1)C(=O)O [Example 135, Benzofuran-2-carboxylic acid 4′-(1-carboxy-2-methyl-propylsulfamoyl)-biphenyl-4-yl ester] | – | – |
| 1.1 nM | 2.5 nM | 500 nM | – | – | CC(C)[C@@H](NS(=O)(=O)c1ccc(-c2ccc(OCc3cc4ccccc4o3)cc2)cc1)C(=O)O [Example 141, D-2-[4′-(Benzofuran-2-ylmethoxy)-biphenyl-4-sulfonylamino]-3-methyl-butyric acid] | – | – |
| 0.5 nM | 14 nM | 17000 nM | 40000 nM | – | CC(C)[C@H](NS(=O)(=O)c1ccc(-c2ccc(NC(=O)c3cc4c(ccc5ccccc54)o3)cc2)cc1)C(=O)O [Example 153, L-3-Methyl-2-{4′-[(naphtho[2,1-b]furan-2-carbonyl)-amino]-biphenyl-4-sulfonylamino}-butyric acid] | – | – |
| 6.1 nM | 379 nM | – | – | – | Cc1c(C(=O)Nc2ccc(-c3ccc(S(=O)(=O)N[C@H](C(=O)O)C(C)C)cc3)cc2)oc2cccc(O)c12 [Example 161, L-2-{4′-[(4-Hydroxy-3-methyl-benzofuran-2-carbonyl)-amino]-biphenyl-4-sulfonylamino}-3-methyl-butyric acid] | – | – |
| 85 nM | 2610 nM | – | – | – | CCn1c(C(=O)Nc2ccc(-c3ccc(S(=O)(=O)N[C@H](C(=O)O)C(C)C)cc3)nc2)nc2ccccc21 [Example 162, L-2-(4-{5-[(1-Ethyl-1H-benzimidazole-2-carbonyl)-amino]-pyridin-2-yl}-benzenesulfonylamino)-3-methyl-butyric acid] | – | – |
| 3.1 nM | 5.8 nM | – | – | – | CC(C)[C@H](NS(=O)(=O)c1ccc(-c2ccc(NC(=O)c3cc(-c4ccc(Cl)cc4)no3)cc2)cc1)C(=O)O [Example 166, (S)-2-(4′-{[3-(4-Chloro-phenyl)-isoxazole-5-carbonyl]-amino}-biphenyl-4-sulfonylamino)-3-methyl-butyric acid] | – | – |
| 99 nM | 1290 nM | 36000 nM | 60000 nM | – | Cc1cc(C(=O)Nc2ccc(-c3ccc(S(=O)(=O)N[C@H](C(=O)O)C(C)C)cc3)cc2)nn1-c1ccccc1 [Example 168, (S)-3-Methyl-2-{4′-[(5-methyl-1-phenyl-1H-pyrazole-3-carbonyl)-amino]-biphenyl-4-sulfonylamino}-butyric acid] | – | – |
| 75 nM | 1190 nM | 40000 nM | 40400 nM | – | CC(C)[C@H](NS(=O)(=O)c1ccc(-c2ccc(NC(=O)c3csc(-c4ccncc4)n3)cc2)cc1)C(=O)O [Example 169, (S)-3-Methyl-2-{4′-[(2-pyridin-4-yl-thiazole-4-carbonyl)-amino]-biphenyl-4-sulfonylamino}-butyric acid] | – | – |
| 20 nM | 4340 nM | – | – | – | Cc1c(C(=O)Nc2ccc(-c3ccc(S(=O)(=O)N[C@H](C(=O)O)C(C)C)cc3)cc2)oc2cccc(OCC(=O)N(C)C)c12 [Example 176, (S)-2-{4′-[(4-Dimethylcarbamoylmethoxy-3-methyl-benzofuran-2-carbonyl)-amino]-biphenyl-4-sulfonylamino}-3-methyl-butyric acid] | – | – |
| 13 nM | 3320 nM | – | – | – | Cc1c(C(=O)Nc2ccc(-c3ccc(S(=O)(=O)N[C@H](C(=O)O)C(C)C)cc3)cc2)oc2cccc(OCc3ccccn3)c12 [Example 178, (S)-3-Methyl-2-(4′-{[3-methyl-4-(pyridin-2-ylmethoxy)-benzofuran-2-carbonyl]-amino}-biphenyl-4-sulfonylamino)-butyric acid] | – | – |
| 7.1 nM | 4000 nM | – | – | – | Cc1c(C(=O)Nc2ccc(-c3ccc(S(=O)(=O)N[C@H](C(=O)O)C(C)C)cc3)cc2)oc2cccc(OCc3ccncc3)c12 [Example 179, (S)-3-Methyl-2-(4′-{[3-methyl-4-(pyridin-4-ylmethoxy)-benzofuran-2-carbonyl]-amino}-biphenyl-4-sulfonylamino)-butyric acid] | – | – |

| SMILES | IC50 (MMP-13; [1]) | IC50 (MMP-2) | IC50 (MMP-14; [2]) | IC50 (MMP-1) | IC50 (MMP-13; MMP-13 IC50, recombinant human catalytic domain of MMP-13) | IC50 (MMP-14) | IC50 (MMP-1; read-out: MMP-1 IC50, recombinant human catalytic domain of MMP-1) |
| --- | --- | --- | --- | --- | --- | --- | --- |
| O=C(O)CNS(=O)(=O)c1ccc(-c2ccc(NC(=O)c3cc4ccccc4o3)cc2)cc1 [Example 1, N-({4′-[(1-benzofuran-2-ylcarbonyl)amino]-1,1′-biphenyl-4-yl}sulfonyl)glycine] | 35 nM | 47 nM | 13900 nM | – | – | – | – |
| CC(C)[C@H](NS(=O)(=O)c1ccc(-c2ccc(NC(=O)c3cc4ccccc4[nH]3)cc2)cc1)C(=O)O [Example 3] | – | – | 5600 nM | – | – | – | – |
| Cc1c(C(=O)Nc2ccc(-c3ccc(S(=O)(=O)N[C@H](C(=O)O)C(C)C)cc3)cc2)oc2ccccc12 [Example 83, N-[(4′-{[(3-Methyl-1-benzofuran-2-yl)carbonyl]amino}-1,1′-biphenyl-4-yl)sulfonyl]-L-valine] | 5.9 nM | 259 nM | 12400 nM | 24300 nM | – | – | – |
| COc1c(Br)ccc2oc(C(=O)Nc3ccc(-c4ccc(S(=O)(=O)N[C@H](C(=O)O)C(C)C)cc4)cc3)c(C)c12 [Example 118, (S)-2-{4′-[(5-bromo-4-methoxy-3-methyl-benzofuran-2-carbonyl)-amino]-biphenyl-4-sulfonylamino}-3-methyl-butyric acid] | 2.3 nM | 1700 nM | – | – | – | 14600 nM | 30000 nM |
| Cc1c(COc2ccc(-c3ccc(S(=O)(=O)N[C@@H](C(=O)O)C(C)C)cc3)cc2)oc2ccccc12 [Example 139, D-3-Methyl-2-[4′-(3-methyl-benzofuran-2-ylmethoxy)-biphenyl-4-sulfonylamino]-butyric acid] | 4.4 nM | 28 nM | 3500 nM | – | – | – | – |
| Cc1c(C(=O)Nc2ccc(-c3ccc(S(=O)(=O)N[C@H](C(=O)O)C(C)C)cc3)cc2)oc2cccc(OCCNC(=O)OC(C)(C)C)c12 [Example 177, (S)-2-(4′-{[4-(2-tert-Butoxycarbonylamino-ethoxy)-3-methyl-benzofuran-2-carbonyl]-amino}-biphenyl-4-sulfonylamino)-3-methyl-butyric acid] | 15 nM | 3000 nM | – | – | – | – | – |
